# Several values for one entry are separate records, joined by “and”; a condition that tells them apart may be missing. Equal entries are not always repeated. Marks after values point to notes of the source that are not given here.
# Legend:
# Type in all cases: in vivo
# [1] = in vivo; settings: male, albino Swiss, mouse, in vivo, ip; mice, intraperitoneal, mortality after 24 h; confidence limits in parentheses
# Experimental: (§1) The experiments were carried out on male albino Swiss mice (body weight 18–26 g). All of the animals were housed at constant humidity (60%) and temperature (25 °C) and kept on a 12 h light/dark cycle. Animals were fed a standard pellet diet with free access to tap water. All procedures were conducted according to Animal Care and Use Committee guidelines, and approved by the Ethical Committee of Jagiellonian University, Kraków.
# (§2) Control and experimental groups consisted of 6–8 animals each. The investigated compounds were administered intraperitoneally as a suspension in 0.5% methylcellulose in a constant volume of 10 mL/kg.
# [2] = test system: mice; experiment: in vivo; settings: ED50 of the writhing test (Table 3) relative to LD50 i.p.
# Experimental: as §1, §2
# [3] = test system: mice; experiment: “Writhing” test in mice (phenylbenzoquinone); settings: for ED50: Mus musculus, ip, read-out: ED50 (mg/kg) ± SEM, writhing test; for ED50 / ED50 (mg/kg) ± SEM, writhing test: confidence limits in parentheses; for ED50 (mg/kg) ± SEM, writhing test / Mean no. of writhing ± SEM: i.p.
# Experimental: as §1, §2
# (§3) The statistical significance was calculated using a Student’s t-test. The ED50 values and their confidence limits were calculated according to the method of Litchfield and Wilcoxon.
# (§4) Pain reactivity was measured in two tests: “hot plate” test (according to the method of Eddy and Leimbach) and “writhing” test in mice (according to Hendershot and Forsaith).
# Then, after 25 min, the irritant (phenylbenzoquinone, 0.02% solution, ethanol-water, 5:95) was also administered intraperitoneally in a constant volume of 0.25 mL. Five min after the application of the irritant,a 10 min long period of observation started, in which the number of writhing episodes was counted.
# The analgesic effect of individual doses was expressed in percent:(1) % Analgesic effect=100−∑ of writing incidents in experimental group/∑ of writhing incidents in control group×100
# [4] = test system: mice; experiment: “Hot plate” test in mice; settings: hot plate, mice
# Experimental: as §1, §2, §3, §4
# Animals were placed individually on the metal plate, heated to 55 ± 1 °C. The latency time (s) to the pain reaction (licking of the hind paws or jumping) was recorded by a stop-watch. A cutoff time of 45 s was used to prevent tissue damage.
# [5] = test system: mice; experiment: Spontaneous locomotor activity in mice (photoresistor actometers); settings: for ED50: confidence limits in parentheses, read-out: ED50 (mg/kg) ± SEM, spontaneous locomotor activity; for Number of impulses ± SEM (30min): i.p.
# Experimental: as §1, §2
# Spontaneous locomotor activity in mice was measured in circular photoresistoractometers (32 cm in diameter). […] Thirty minutes after the injection of the investigated compounds, mice were placed in the actometers for 30 min. Each crossing of the light beam was recorded automatically. The amount of impulses was noted after 30 min.
# [6] = test system: mice; experiment: Thiopental anesthesia (thiopental-induced sleep); settings: for Prolongation (%) of thiopental anesthesia / Duration of Anesthesia ± SEM: i.p.; for effect on duration of thiopental anesthesia (in words): mouse, in vivo; for Duration of Anesthesia ± SEM: thiopental
# Source text: The pilot biological studies for imides 9 and 11 were supplemented with the determination of the effect of the intraperitoneal administration of the test compounds on the duration of thiopental-induced sleep. The mechanism and the degree of crossing the blood–brain barrier has not been precisely defined. The observed sedative effects may indicate good penetration of compounds into the central nervous system, which, however, has not been confirmed.
# as §2
# [7] = Mus musculus, ip, 0.5 h, dose 100 mg/kg, read-out: Prolonged Time (%)
# [8] = Mus musculus, ip, 0.5 h, dose 200 mg/kg, read-out: Prolonged Time (%)
# [9] = Mus musculus, ip, dose 25 mg/kg, read-out: Degree of motor inhibition (%)
# [10] = Mus musculus, ip, dose 50 mg/kg, read-out: Degree of motor inhibition (%)
# [11] = Mus musculus, ip, dose 100 mg/kg, read-out: Degree of motor inhibition (%)
# [12] = Mus musculus, ip, dose 200 mg/kg, read-out: Degree of motor inhibition (%)
smiles,measurement,setting,value
COc1nc(C)cc2c1C(=O)N(CCN1CCN(c3ccccc3)CC1)C2=O [Compound 9],LD50 at 24 h,[1],1500 mg/kg
same,analgesic ED50 as fraction of LD50,[2],≈ 1/408
same,ED50,[3],3.25 mg/kg
same,"ED50 (mg/kg) ± SEM, writhing test",[3],3.67 mg/kg
same,Mean no. of writhing ± SEM,[3]; dose 4.68 mg/kg,22.0 ± 4.6
same,Mean no. of writhing ± SEM,[3]; dose 9.375 mg/kg,9.8 ± 1.8
same,Mean no. of writhing ± SEM,[3]; dose 18.75 mg/kg,5.0 ± 2.0
same,Mean no. of writhing ± SEM,[3]; dose 37.5 mg/kg,1.2 ± 0.7
same,change in vivo at 75 mg/kg,"[4]; Mus musculus, ip, 0.5 h, dose 75 mg/kg, read-out: Prolonged Time (%)",55%
same,change in vivo at 150 mg/kg,"[4]; Mus musculus, ip, 0.5 h, dose 150 mg/kg, read-out: Prolonged Time (%)",102%
same,change in vivo at 300 mg/kg,"[4]; Mus musculus, ip, 0.5 h, dose 300 mg/kg, read-out: Prolonged Time (%)",105%
same,Time of Reaction to Pain Stimulus (s) ± SEM,[4]; dose 75 mg/kg,30.3 ± 2.7 s
same,Time of Reaction to Pain Stimulus (s) ± SEM,[4]; dose 150 mg/kg,39.2 ± 5 s
same,Time of Reaction to Pain Stimulus (s) ± SEM,[4]; dose 300 mg/kg,40.0 ± 4.4 s
same,ED50,"[5]; Mus musculus, ip",18.8 mg/kg
same,inhibition at 4.68 mg/kg,"[5]; Mus musculus, ip, dose 4.68 mg/kg, read-out: Degree of motor inhibition (%)",22.6%
same,inhibition at 9.37 mg/kg,"[5]; Mus musculus, ip, dose 9.37 mg/kg (Table 9), read-out: % Inh. of locomotor activity",42.8%
same,inhibition at 18.75 mg/kg,"[5]; Mus musculus, ip, dose 18.75 mg/kg, read-out: Degree of motor inhibition (%)",45.9%
same,inhibition at 37.5 mg/kg,"[5]; Mus musculus, ip, dose 37.5 mg/kg, read-out: Degree of motor inhibition (%)",67.2%
same,Number of impulses ± SEM (30min),[5]; dose 18.75 mg/kg,244 ± 45
same,Number of impulses ± SEM (30min),[5]; dose 37.5 mg/kg,148 ± 32
same,Number of impulses ± SEM (30min),[5]; dose 93.75 mg/kg (as printed in Table S2),258 ± 47.4
same,Prolongation (%) of thiopental anesthesia,[6]; dose 9.375 mg/kg,34.8%
same,Prolongation (%) of thiopental anesthesia,[6]; dose 18.75 mg/kg,96.5 * % and 96.5%
same,Prolongation (%) of thiopental anesthesia,[6]; dose 37.5 mg/kg,157.1 ** % and 157.1%
same,effect on duration of thiopental anesthesia (in words),[6],extended the duration of thiopental anesthesia
same,Duration of Anesthesia ± SEM,[6]; dose 9.375 mg/kg,69.4 ± 12 min
same,Duration of Anesthesia ± SEM,[6]; dose 18.75 mg/kg,101.2 ± 28.4 min
same,Duration of Anesthesia ± SEM,[6]; dose 37.5 mg/kg,132.4 ± 27.8 min
COc1ccccc1N1CCN(CCN2C(=O)c3cc(C)nc(OC)c3C2=O)CC1 [Compound 11],LD50 at 24 h,[1],> 2000 mg/kg
same,ED50,[3],3.67 mg/kg
same,"ED50 (mg/kg) ± SEM, writhing test",[3],3.25 mg/kg
same,Mean no. of writhing ± SEM,[3]; dose 3.125 mg/kg,17.7 ± 2.4
same,Mean no. of writhing ± SEM,[3]; dose 6.25 mg/kg,6.0 ± 2.8
same,Mean no. of writhing ± SEM,[3]; dose 12.5 mg/kg,4.3 ± 1.1
same,Mean no. of writhing ± SEM,[3]; dose 50 mg/kg,1.4 ± 0.6
same,change in vivo at 100 mg/kg,[4]; [7],23%
same,change in vivo at 200 mg/kg,[4]; [8],50.7%
same,change in vivo at 400 mg/kg,"[4]; Mus musculus, ip, 0.5 h, dose 400 mg/kg, read-out: Prolonged Time (%)",105%
same,Time of Reaction to Pain Stimulus (s) ± SEM,[4]; dose 100 mg/kg,24.0 ± 5.0 s
same,Time of Reaction to Pain Stimulus (s) ± SEM,[4]; dose 200 mg/kg,29.4 ± 5.0 s
same,Time of Reaction to Pain Stimulus (s) ± SEM,[4]; dose 400 mg/kg,40.0 ± 8.5 s
same,ED50,"[5]; Mus musculus, ip",19.7 mg/kg
same,inhibition at 6.25 mg/kg,"[5]; Mus musculus, ip, dose 6.25 mg/kg, read-out: Degree of motor inhibition (%)",28.2%
same,inhibition at 12.5 mg/kg,"[5]; Mus musculus, ip, dose 12.5 mg/kg, read-out: Degree of motor inhibition (%)",55.4%
same,inhibition at 25 mg/kg,[5]; [9],55.9%
same,inhibition at 50 mg/kg,[5]; [10],68.7%
same,Number of impulses ± SEM (30min),[5]; dose 6.25 mg/kg,324 ± 49
same,Number of impulses ± SEM (30min),[5]; dose 12.5 mg/kg,201 ± 74
same,Number of impulses ± SEM (30min),[5]; dose 25 mg/kg,199.1 ± 48
same,Number of impulses ± SEM (30min),[5]; dose 50 mg/kg,141 ± 63
same,Prolongation (%) of thiopental anesthesia,[6]; dose 12.5 mg/kg,36.3%
same,Prolongation (%) of thiopental anesthesia,[6]; dose 25 mg/kg,16.11%
same,Prolongation (%) of thiopental anesthesia,[6]; dose 50 mg/kg,140.8 *** % and 140.8%
same,effect on duration of thiopental anesthesia (in words),[6],extended the duration of thiopental anesthesia
same,Duration of Anesthesia ± SEM,[6]; dose 12.5 mg/kg,70.2 ± 24 min
same,Duration of Anesthesia ± SEM,[6]; dose 25 mg/kg,50.8 ± 14.2 min
same,Duration of Anesthesia ± SEM,[6]; dose 50 mg/kg,124 ± 16.2 min
CCOc1nc(C)cc2c1C(=O)N(CN1CCN(c3cccc(Cl)c3)CC1)C2=O [Compound 14],LD50 at 24 h,[1],> 2000 mg/kg
same,ED50,[3],18.4 mg/kg
same,Mean no. of writhing ± SEM,[3]; dose 12.5 mg/kg,15.1 ± 4.2
same,Mean no. of writhing ± SEM,[3]; dose 25 mg/kg,9.1 ± 0.8
same,Mean no. of writhing ± SEM,[3]; dose 50 mg/kg,5.9 ± 1.9
same,Mean no. of writhing ± SEM,[3]; dose 100 mg/kg,1.8 ± 0.3
same,change in vivo at 100 mg/kg,[4]; [7],2.32%
same,change in vivo at 200 mg/kg,[4]; [8],16.8%
same,Time of Reaction to Pain Stimulus (s) ± SEM,[4]; dose 100 mg/kg,17.6 ± 2.4 s
same,Time of Reaction to Pain Stimulus (s) ± SEM,[4]; dose 200 mg/kg,20.1 ± 2.3 s
same,ED50,"[5]; Mus musculus, ip",98 ± 13.3 mg/kg
same,inhibition at 25 mg/kg,[5]; [9],10.7%
same,inhibition at 50 mg/kg,[5]; [10],3.5%
same,inhibition at 100 mg/kg,[5]; [11],52.4%
same,inhibition at 200 mg/kg,[5]; [12],66%
same,Number of impulses ± SEM (30min),[5]; dose 25 mg/kg,394 ± 70
same,Number of impulses ± SEM (30min),[5]; dose 50 mg/kg,280 ± 46
same,Number of impulses ± SEM (30min),[5]; dose 100 mg/kg,210 ± 40
same,Number of impulses ± SEM (30min),[5]; dose 200 mg/kg,150 ± 48
COc1nc(C)cc2c1C(=O)N(CN1CCN(c3ccccc3Cl)CC1)C2=O [Compound 15],LD50 at 24 h,[1],> 2000 mg/kg
same,ED50,[3],19.2 ± 2.14 mg/kg
same,Mean no. of writhing ± SEM,[3]; dose 12.5 mg/kg,17.2 ± 3.2
same,Mean no. of writhing ± SEM,[3]; dose 25 mg/kg,9.4 ± 2.2
same,Mean no. of writhing ± SEM,[3]; dose 50 mg/kg,2.9 ± 1.9
same,Mean no. of writhing ± SEM,[3]; dose 100 mg/kg,1.4 ± 0.4
same,change in vivo at 200 mg/kg,[4]; [8],15.7%
same,Time of Reaction to Pain Stimulus (s) ± SEM,[4]; dose 100 mg/kg,17.0 ± 2.8 s
same,Time of Reaction to Pain Stimulus (s) ± SEM,[4]; dose 200 mg/kg,19.9 ± 3.9 s
same,ED50,"[5]; Mus musculus, ip",89.1 ± 4.46 mg/kg
same,inhibition at 25 mg/kg,[5]; [9],9.52%
same,inhibition at 50 mg/kg,[5]; [10],42.6%
same,inhibition at 100 mg/kg,[5]; [11],54%
same,inhibition at 200 mg/kg,[5]; [12],65.5%
same,Number of impulses ± SEM (30min),[5]; dose 25 mg/kg,399 ± 71
same,Number of impulses ± SEM (30min),[5]; dose 50 mg/kg,253 ± 48
same,Number of impulses ± SEM (30min),[5]; dose 100 mg/kg,203 ± 39
same,Number of impulses ± SEM (30min),[5]; dose 200 mg/kg,152 ± 34

# Source: article PMC7764601 (Molecules, 2020)
